From PubChem BioAssay AID1259407 (Chemical Carcinogenesis Research Information System (CCRIS), 2018)
The source made the active and inactive calls. No rule for the calls is given here.

System: CCRIS mutagenicity, Ames/micronucleus/aberration tests
Assay: CCRIS mutagenicity studies
[1] = Test System: AMES SALMONELLA TYPHIMURIUM, Strain/Indicator: TA100, Metabolic Activation: NONE, Method: STANDARD PLATE
[2] = Test System: AMES SALMONELLA TYPHIMURIUM, Strain/Indicator: TA1537, Metabolic Activation: NONE, Method: STANDARD PLATE
[3] = Test System: AMES SALMONELLA TYPHIMURIUM, Strain/Indicator: TA97, Metabolic Activation: HAMSTER, LIVER, S-9, AROCLOR 1254 (10%), Method: PREINCUBATION
[4] = Test System: AMES SALMONELLA TYPHIMURIUM, Strain/Indicator: TA97, Metabolic Activation: NONE, Method: PREINCUBATION
[5] = Test System: AMES SALMONELLA TYPHIMURIUM, Strain/Indicator: TA97, Metabolic Activation: RAT, LIVER, S-9, AROCLOR 1254 (10%), Method: PREINCUBATION
[6] = Test System: AMES SALMONELLA TYPHIMURIUM, Strain/Indicator: TA98, Metabolic Activation: HAMSTER, LIVER, S-9, AROCLOR 1254 (10%), Method: PREINCUBATION
[7] = Test System: AMES SALMONELLA TYPHIMURIUM, Strain/Indicator: TA98, Metabolic Activation: NONE, Method: PREINCUBATION
[8] = Test System: AMES SALMONELLA TYPHIMURIUM, Strain/Indicator: TA98, Metabolic Activation: RAT, LIVER, S-9, AROCLOR 1254 (10%), Method: PREINCUBATION
[9] = Test System: AMES SALMONELLA TYPHIMURIUM, Strain/Indicator: TA100, Metabolic Activation: HAMSTER, LIVER, S-9, AROCLOR 1254 (10%), Method: PREINCUBATION
[10] = Test System: AMES SALMONELLA TYPHIMURIUM, Strain/Indicator: TA100, Metabolic Activation: RAT, LIVER, S-9, AROCLOR 1254 (10%), Method: PREINCUBATION
[11] = Test System: AMES SALMONELLA TYPHIMURIUM, Strain/Indicator: TA1535, Metabolic Activation: HAMSTER, LIVER, S-9, AROCLOR 1254 (10%), Method: PREINCUBATION
[12] = Test System: AMES SALMONELLA TYPHIMURIUM, Strain/Indicator: TA1535, Metabolic Activation: NONE, Method: PREINCUBATION
[13] = Test System: AMES SALMONELLA TYPHIMURIUM, Strain/Indicator: TA1535, Metabolic Activation: RAT, LIVER, S-9, AROCLOR 1254 (10%), Method: PREINCUBATION

## O=C(Cl)OCC1c2ccccc2-c2ccccc21
Test System: AMES SALMONELLA TYPHIMURIUM, Strain/Indicator: TA98, Metabolic Activation: NONE, Method: STANDARD PLATE
  mutagenic call: inactive; negative
Test System: AMES SALMONELLA TYPHIMURIUM, Strain/Indicator: TA98, Metabolic Activation: RAT, LIVER, S-9, AROCLOR 1254, Method: STANDARD PLATE
  mutagenic call: inactive; negative
[1]
  mutagenic call: inactive; negative
Test System: AMES SALMONELLA TYPHIMURIUM, Strain/Indicator: TA100, Metabolic Activation: RAT, LIVER, S-9, AROCLOR 1254, Method: STANDARD PLATE
  mutagenic call: inactive; negative
Test System: AMES SALMONELLA TYPHIMURIUM, Strain/Indicator: TA1535, Metabolic Activation: NONE, Method: STANDARD PLATE
  mutagenic call: inactive; negative
Test System: AMES SALMONELLA TYPHIMURIUM, Strain/Indicator: TA1535, Metabolic Activation: RAT, LIVER, S-9, AROCLOR 1254, Method: STANDARD PLATE
  mutagenic call: inactive; negative
[2]
  mutagenic call: inactive; negative
Test System: AMES SALMONELLA TYPHIMURIUM, Strain/Indicator: TA1537, Metabolic Activation: RAT, LIVER, S-9, AROCLOR 1254, Method: STANDARD PLATE
  mutagenic call: active; positive

## O=S(=O)(O)O.[NH-]CC1(C[NH-])CCCCC1.[Pt+2]
Test System: CHINESE HAMSTER, Strain/Indicator: V-79/6-THIOGUANINE (HGPRT), Metabolic Activation: NONE, Method: STANDARD PLATE
  mutagenic call: active; positive

## CC(C)CC(=O)Nc1snc2ccc(Cl)cc12
[1]
  mutagenic call: inactive; negative
Test System: AMES SALMONELLA TYPHIMURIUM, Strain/Indicator: TA100, Metabolic Activation: S-9, Method: STANDARD PLATE
  mutagenic call: inactive; negative
[2]
  mutagenic call: inactive; negative
Test System: AMES SALMONELLA TYPHIMURIUM, Strain/Indicator: TA1537, Metabolic Activation: S-9, Method: STANDARD PLATE
  mutagenic call: inactive; negative

## c1ccc2c(c1)ccc1cc3ccc4ccccc4c3nc12
Test System: AMES SALMONELLA TYPHIMURIUM, Strain/Indicator: TA100, Metabolic Activation: RAT, LIVER, S-9, PHENOBARBITAL AND 5,6-BENZOFLAVONE, Method: STANDARD PLATE
  mutagenic call: active; positive

## O=NN(CCO)CCO
[3]
  mutagenic call: active; positive
[4]
  mutagenic call: active; positive
[5]
  mutagenic call: active; positive
[6]
  mutagenic call: active; positive
[7]
  mutagenic call: active; positive
[8]
  mutagenic call: active; positive
[9]
  mutagenic call: active; positive
[1]
  mutagenic call: active; positive
Test System: AMES SALMONELLA TYPHIMURIUM, Strain/Indicator: TA100, Metabolic Activation: RABBIT, LIVER, S-9, Method: STANDARD PLATE
  mutagenic call: inactive; negative
Test System: AMES SALMONELLA TYPHIMURIUM, Strain/Indicator: TA100, Metabolic Activation: RABBIT, LUNG, S-9, Method: STANDARD PLATE
  mutagenic call: inactive; negative
Test System: AMES SALMONELLA TYPHIMURIUM, Strain/Indicator: TA100, Metabolic Activation: RABBIT, NASAL, S-9, Method: STANDARD PLATE
  mutagenic call: active; positive
[10]
  mutagenic call: active; positive
Test System: AMES SALMONELLA TYPHIMURIUM, Strain/Indicator: TA100, Metabolic Activation: RAT, LIVER, S-9, Method: STANDARD PLATE
  mutagenic call: inactive; negative
Test System: AMES SALMONELLA TYPHIMURIUM, Strain/Indicator: TA100, Metabolic Activation: RAT, LUNG, S-9, Method: STANDARD PLATE
  mutagenic call: active; positive
Test System: AMES SALMONELLA TYPHIMURIUM, Strain/Indicator: TA100, Metabolic Activation: RAT, NASAL, S-9, Method: STANDARD PLATE
  mutagenic call: active; positive
[11]
  mutagenic call: active; positive
[12]
  mutagenic call: inactive; negative
[13]
  mutagenic call: active; positive

## O=C(O)C1=NN(c2ccc(S(=O)(=O)O)cc2)C(=O)C1N=Nc1ccc(S(=O)(=O)O)cc1.[Al] (stereo not given)
[3]
  mutagenic call: inactive; negative
Test System: AMES SALMONELLA TYPHIMURIUM, Strain/Indicator: TA97, Metabolic Activation: HAMSTER, LIVER, S-9, AROCLOR 1254 (30%), Method: PREINCUBATION
  mutagenic call: inactive; negative
[4]
  mutagenic call: inactive; negative
[5]
  mutagenic call: inactive; negative
Test System: AMES SALMONELLA TYPHIMURIUM, Strain/Indicator: TA97, Metabolic Activation: RAT, LIVER, S-9, AROCLOR 1254 (30%), Method: PREINCUBATION
  mutagenic call: inactive; negative
[6]
  mutagenic call: inactive; negative
Test System: AMES SALMONELLA TYPHIMURIUM, Strain/Indicator: TA98, Metabolic Activation: HAMSTER, LIVER, S-9, AROCLOR 1254 (30%), Method: PREINCUBATION
  mutagenic call: inactive; negative
[7]
  mutagenic call: inactive; negative
[8]
  mutagenic call: inactive; negative
Test System: AMES SALMONELLA TYPHIMURIUM, Strain/Indicator: TA98, Metabolic Activation: RAT, LIVER, S-9, AROCLOR 1254 (30%), Method: PREINCUBATION
  mutagenic call: inactive; negative
[9]
  mutagenic call: inactive; negative
Test System: AMES SALMONELLA TYPHIMURIUM, Strain/Indicator: TA100, Metabolic Activation: HAMSTER, LIVER, S-9, AROCLOR 1254 (30%), Method: PREINCUBATION
  mutagenic call: inactive; negative
Test System: AMES SALMONELLA TYPHIMURIUM, Strain/Indicator: TA100, Metabolic Activation: NONE, Method: PREINCUBATION
  mutagenic call: inactive; negative
[10]
  mutagenic call: inactive; negative
Test System: AMES SALMONELLA TYPHIMURIUM, Strain/Indicator: TA100, Metabolic Activation: RAT, LIVER, S-9, AROCLOR 1254 (30%), Method: PREINCUBATION
  mutagenic call: inactive; negative
[11]
  mutagenic call: inactive; negative
Test System: AMES SALMONELLA TYPHIMURIUM, Strain/Indicator: TA1535, Metabolic Activation: HAMSTER, LIVER, S-9, AROCLOR 1254 (30%), Method: PREINCUBATION
  mutagenic call: inactive; negative
[12]
  mutagenic call: inactive; negative
[13]
  mutagenic call: inactive; negative
Test System: AMES SALMONELLA TYPHIMURIUM, Strain/Indicator: TA1535, Metabolic Activation: RAT, LIVER, S-9, AROCLOR 1254 (30%), Method: PREINCUBATION
  mutagenic call: inactive; negative
Test System: AMES SALMONELLA TYPHIMURIUM, Strain/Indicator: TA1537, Metabolic Activation: HAMSTER, LIVER, S-9, AROCLOR 1254 (30%), Method: PREINCUBATION
  mutagenic call: inactive; negative
Test System: AMES SALMONELLA TYPHIMURIUM, Strain/Indicator: TA1537, Metabolic Activation: NONE, Method: PREINCUBATION
  mutagenic call: inactive; negative
Test System: AMES SALMONELLA TYPHIMURIUM, Strain/Indicator: TA1537, Metabolic Activation: RAT, LIVER, S-9, AROCLOR 1254 (30%), Method: PREINCUBATION
  mutagenic call: inactive; negative
